Laboratory results from patent publication US6117661A, “Mutant mono-oxygenase cytochrome P450cam” (BG plc, priority 1995, dated 2000).
Like-named read-outs stand apart in the source and are kept apart here.

Columns and labels:
Wild type P450cam [1] = biological target: T1, Wild type P450cam (Pseudomonas putida, UniProt P00183); assay type: binding, P. putida
P-450cam mutant Y96A = biological target: T2, P-450cam mutant Y96A (Pseudomonas putida, UniProt P00183, Y97A); experiment: Substrate binding constant Kapp, method of Sligar
T2 construct: made in house; host or cells: E. coli JM109, vector pRH1091
Description: (§1) Binding of potential substrates was investigated by spectroscopic methods. […] This haem spin-state shift is accompanied by an increase in the haem reduction potential which enables the physiological electron-transfer partner putidaredoxin to reduce P-450cam and initiate the catalytic hydroxylation cycle^26. The haem spin state shift is thus a qualitative indication of the likelihood of molecules shown in Tables 1 and 2 being oxidised by the wild-type and mutant P-450cam enzymes.
(§2) ^a Values are the average of two independent measurements using the
(§3) method of Sligar (S. G. Sligar, Biochemistry, 1976, 15, 5399-5406). The
(§4) value of Kapp is strongly dependent on the concentration of K^+
(§5) in the buffer. At [K^+ ] > 150 mM, Kapp for camphor is 0.6 μM
(§6) for both wildtype and Y96A. Data in this table were determined at [K^
(§7) ] = 70 mM in phosphate buffer, pH 7.4, in order to avoid # salting out o
(§8) substrates at higher ion concentrations.

Wild type P450cam [2] = biological target: T1, Wild type P450cam; experiment: Substrate binding constant Kapp, method of Sligar; set-up: made in house; host or cells: E. coli JM109, vector pRH1091
Description: as §1, §2, §3, §4, §5, §6, §7, §8

P450cam Mutant Y96A = P450cam Mutant Y96A (Pseudomonas putida, UniProt P00183, C335A/Y97A); assay type: binding, P. putida
P450cam WT = biological target: T3, P450cam WT (Pseudomonas putida, UniProt P00183); experiment: Product distribution following oxidation of substrates (GC); assay type: biochemical, P. putida; settings: for Products (%) WT: label = product
T3 construct: reconstituted with putidaredoxin and putidaredoxin reductase
Procedure: (§9) A buffered solution (50 mM Tris.HCI, pH 7.4), typically 3 ml in volume, containing 10 uM putidaredoxin, 2 uM putidaredoxin reductase, 1 uM cytochrome P-450cam mono-oxygenase (wild-type or mutant), 200 mM KCI, 50 ug/ml bovine liver catalase (Sigma), and 1 mM target organic compound such as cyclohexylbenzene (added as a 0.1 M stock in ethanol) was preincubated at 30° C. for 5 minutes. The enzymatic reaction was initiated by adding NADH to a total concentration of 2 mM. Further four aliquots of NADH (to increase the NADH concentration by 1 mM each time) were added in intervals of 10 minutes, and 30 minutes into the incubation one aliquot of substrate (to increase the concentration by 1 mM) was also added. The reaction was quenched after 60 minutes by adding 0.5 ml chloroform and vortexing the mixture. The phases were separated by centrifugation (4000 g) at 4° C. The chloroform layer was analyzed by gas chromatography.
(§10) For many substrate compounds such as cyclohexylbenzene for which not all the P-450cam-mediated oxidation products are commercially available, the chloroform extracts are evaporated to dryness under a stream of nitrogen. The residues were extracted with hexane and the oxidation products separated by high performance liquid chromatography, eluting with a hexane/isopropanol gradient. The purified products were then identified by mass spectroscopy and particularly nuclear magnetic resonance spectroscopy.
(§11) The NADH concentration can be monitored at 340 nm and, in all cases, more substrates and NADH are added during the incubation.

[3] = biological target: T4, P450cam active site mutant F87A-F96G-F193A (Pseudomonas putida, UniProt P00183, C335A/F194A/F88A/Y97G); assay type: biochemical, P. putida; settings: for Products (%) F87A-F96G-F193A: label = product
T4 construct: reconstituted with putidaredoxin and putidaredoxin reductase
Procedure: as §9, §10, §11

[4] = biological target: T5, P450cam active site mutant Y96A (also C334A) (Pseudomonas putida, UniProt P00183, C335A/Y97A); assay type: biochemical, P. putida; settings: for Products(%) Y96A: label = product
T5 construct: reconstituted with putidaredoxin and putidaredoxin reductase
Procedure: as §9, §10, §11

[5] = biological target: T6, P450cam active site mutant Y96F (also C334A) (Pseudomonas putida, UniProt P00183, C335A/Y97F); assay type: biochemical, P. putida; settings: for Products(%) Y96F: label = product
T6 construct: reconstituted with putidaredoxin and putidaredoxin reductase
Procedure: as §9, §10, §11

[6] = biological target: T7, P450cam active site mutant Y96V (also C334A) (Pseudomonas putida, UniProt P00183, C335A/Y97V); assay type: biochemical, P. putida; settings: for Products (%) Y96V: label = product
T7 construct: reconstituted with putidaredoxin and putidaredoxin reductase
Procedure: as §9, §10, §11

[7] = biological target: T8, P450cam active site mutant Y96L (also C334A) (Pseudomonas putida, UniProt P00183, C335A/Y97L); assay type: biochemical, P. putida; settings: for Products (%) Y96L: label = product
T8 construct: reconstituted with putidaredoxin and putidaredoxin reductase
Procedure: as §9, §10, §11

[8] = Protein dimerisation by anion exchange FPLC and gel filtration; assay type: physicochemical; settings: Resource Q FPLC and Superose 12 gel filtration; C334A even at high concentrations (0.1 mM range)
Description: We concluded that wild-type P-450cam underwent dimerisation by intermolecular S--S disulphide bond formation between the surface cysteine 334 on two protein molecules.

[9] = Protein aggregation upon standing/storage; assay type: physicochemical; settings: mM concentrations at room temperature over a period of three days
Description: The C334A mutation has the obvious benefit of removing unwanted protein dimerisation, thus ensuring the presence of a single species in solution at all times. In addition, we noted a completely unexpected benefit of this mutation. […] Aggregation will also occur during turnover, especially at the higher P-450cam concentrations required in any economically viable industrial application in, for example, synthesis of organic molecules. […] Thus, the C334A mutation has beneficial effects in protein handling, storage, and increased catalyst lifetime.

[10] = -- = no shift, nd = not determined

With `CC12CCC(CC1=O)C2(C)C` (single isomer, unassigned) [camphor] the “haem spin-state conversion on substrate binding” value (Wild type P450cam [1]; Soret band 418 nm to 392 nm) was “fully converted the haem to the 5-co-ordinated, high-spin form”, the Kd (P-450cam mutant Y96A) was 600 nM and the Kd (Wild type P450cam [2]) was 600 nM.

For `c1ccc2c(c1)-c1cccc3cccc-2c13` [Fluoranthene], the “Wild type Vs DTT” value (Wild type P450cam [1]) was 5, the “Mutant Y96A Vs DTT” value (P450cam Mutant Y96A) was 10 and the “Mutant Y96A ΔSpin high/low” value (P450cam Mutant Y96A) was 20. For the same molecule, the “Total products WT” value (P450cam WT; substrate fluoranthene) was 0 area/10^6, the “Total products F87A-F96G-F193A” value ([3]; substrate fluoranthene) was 0.2 area/10^6 and the “Total products Y96A” value ([4]; substrate fluoranthene) was 2.7 area/10^6.

With `Oc1ccc2ccccc2c1` [2-ol] the “Products (%) WT” value (P450cam WT; substrate naphthalene) was 0%, the “Products(%) Y96F” value ([5]; substrate naphthalene) was 0% and the “Products (%) F87A-F96G-F193A” value ([3]; substrate naphthalene) was 0%. For the same molecule, the “Products (%) Y96V” value ([6]; substrate naphthalene) was 0%, the “Products(%) Y96A” value ([4]; substrate naphthalene) was 0% and the “Products (%) Y96L” value ([7]; substrate naphthalene) was 0%.

With `Oc1cccc2ccccc12` [1-ol] the “Products (%) WT” value (P450cam WT; substrate naphthalene) was 100%, the “Products(%) Y96F” value ([5]; substrate naphthalene) was 100% and the “Products (%) F87A-F96G-F193A” value ([3]; substrate naphthalene) was 100%. The “Products (%) Y96V” value ([6]; substrate naphthalene) was 100%, the “Products(%) Y96A” value ([4]; substrate naphthalene) was 100% and the “Products (%) Y96L” value ([7]; substrate naphthalene) was 100%.

For `c1cc2ccc3cccc4ccc(c1)c2c34` [Pyrene], the “Total products WT” value (P450cam WT; substrate pyrene) was 0 area/10^6, the “Total products Y96F” value ([5]; substrate pyrene) was 1.5 area/10^6 and the “Total products F87A-F96G-F193A” value ([3]; substrate pyrene) was 0.02 area/10^6. For the same molecule, the “Total products Y96V” value ([6]; substrate pyrene) was 1.6 area/10^6, the “Total products Y96A” value ([4]; substrate pyrene) was 1.2 area/10^6 and the “Total products Y96L” value ([7]; substrate pyrene) was 1.5 area/10^6.

For `c1ccc2c(c1)ccc1ccccc12` [Phenanthrene], the “Mutant Y96A Vs DTT” value (P450cam Mutant Y96A) was 20, the “Mutant Y96A ΔSpin high/low” value (P450cam Mutant Y96A; [10]) was 20 and the “Total products WT” value (P450cam WT; substrate phenanthrene) was 0.075 area/10^6. The “Total products Y96F” value ([5]; substrate phenanthrene) was 4.5 area/10^6, the “Total products F87A-F96G-F193A” value ([3]; substrate phenanthrene) was 0.065 area/10^6 and the “Total products Y96V” value ([6]; substrate phenanthrene) was 1.6 area/10^6. For the same molecule, the “Total products Y96A” value ([4]; substrate phenanthrene) was 7.0 area/10^6 and the “Total products Y96L” value ([7]; substrate phenanthrene) was 2.8 area/10^6.

With `c1ccc2ccccc2c1` [Naphthalene] the “Mutant Y96A Vs DTT” value (P450cam Mutant Y96A) was 20, the “Mutant Y96A ΔSpin high/low” value (P450cam Mutant Y96A; [10]) was 15 and the “Total products WT” value (P450cam WT; substrate naphthalene) was 0.016 area/10^5. For the same molecule, the “Total products Y96F” value ([5]; substrate naphthalene) was 2.4 area/10^5, the “Total products F87A-F96G-F193A” value ([3]; substrate naphthalene) was 0.1 area/10^5 and the “Total products Y96V” value ([6]; substrate naphthalene) was 1.4 area/10^5. The “Total products Y96A” value ([4]; substrate naphthalene) was 1.1 area/10^5 and the “Total products Y96L” value ([7]; substrate naphthalene) was 0.7 area/10^5.

B1: C334A: P-450cam surface mutant, cysteine 334 substituted to alanine (protein, UniProt P00183 2-415, looked up, variant C334A)
Camphor 5-monooxygenase: TTETIQSNANLAPLPPHVPEHLVFDFDMYNPSNLSAGVQEAWAVLQESNVPDLVWTRCNGGHWIATRGQLIREAYEDYRHFSSECPFIPREAGEAYDFIPTSMDPPEQRQFRALANQVVGMPVVDKLENRIQELACSLIESLRPQGQCNFTEDYAEPFPIRIFMLLAGLPEEDIPHLKYLTDQMTRPDGSMTFAEAKEALYDYLIPIIEQRRQKPGTDAISIVANGQVNGRPITSDEAKRMCGLLLVGGLDTVVNFLSFSMEFLAKSPEHRQELIERPERIPAACEELLRRFSLVADGRILTSDYEFHGVQLKKGDQILLPQMLSGLDERENAAPMHVDFSRQKVSHTTFGHGSHLCLGQHLARREIIVTLKEWLTRIPDFSIAPGAQIQHKSGIVSGVQALPLVWDPATTKAV
For B1, the “presence of protein dimer” value [8] was “no dimer was detected” and the aggregation [9] was “did not show any evidence of aggregation”.
